Here are results for two compounds from ChEMBL document CHEMBL5729562, “Proteasome activity enhancing compounds” (2023).

By IC50 is commonly meant the concentration at which inhibition is half-maximal.

The target in the assay is Ubiquitin carboxyl-terminal hydrolase 14 (Homo sapiens, UniProt P54578). The assay is described as follows: Usp14 Inhibition Assay: Usp14 Inhibition Assay was described in B. H. Lee et al. Nature 2010, 467 (9), 179.

A value given as a limit tells only on which side of the number the result lay.

Chain of Ubiquitin carboxyl-terminal hydrolase 14 (P54578 whole entry): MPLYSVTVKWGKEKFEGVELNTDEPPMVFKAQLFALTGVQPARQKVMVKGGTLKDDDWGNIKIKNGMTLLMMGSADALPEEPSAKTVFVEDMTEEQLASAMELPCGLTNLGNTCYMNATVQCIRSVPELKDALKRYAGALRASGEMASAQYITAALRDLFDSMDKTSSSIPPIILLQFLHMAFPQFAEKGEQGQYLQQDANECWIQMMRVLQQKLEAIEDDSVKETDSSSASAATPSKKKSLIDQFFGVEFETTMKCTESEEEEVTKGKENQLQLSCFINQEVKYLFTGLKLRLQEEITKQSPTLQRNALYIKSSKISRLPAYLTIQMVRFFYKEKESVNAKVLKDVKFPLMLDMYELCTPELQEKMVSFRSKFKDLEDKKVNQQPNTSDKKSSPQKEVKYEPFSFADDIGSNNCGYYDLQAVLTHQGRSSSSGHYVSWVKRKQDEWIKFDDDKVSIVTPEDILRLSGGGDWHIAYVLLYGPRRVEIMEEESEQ

Take `Cc1c(C(=O)CN2C3CCC2CC3)cc(C#CCCC#N)n1-c1ccc(C#N)cc1`: the IC50 is below 50 nM.
The result for `Cc1c(C(=O)CN2C3CC4CC2CC(C3)O4)cc(CCCCC#N)n1-c1ccc(C#N)cc1` reads below 50 nM.
